Test results from patent US11077205B2, “Synthetic compound for improving efficiency of transfection” (Klinikum der Universität München, priority 2016, dated 2021).
The star is where a group is joined. ξ: configuration not given here. Lipoyl(6ξ) = O=C(CCCCC1CCSS1)*

Legend:
[1] = Size and zeta potential measurements (Zetasizer Nano ZS) of P704 based binary and ternary complexes; format: physicochemical
Description: Size and zeta potential measurements: Particle size and zeta potential measurements of P704 based binary and ternary complexes were measured using a Zetasizer Nano ZS (Malvern Instruments Ltd.) at 25° C. Binary complexes were prepared in Tyrode's solution at a weight/weight ratio (P704/IVT-mRNA or pDNA) of 63:1. Ternary complexes were prepared in NF-water with P704 at a weight/weight ratio of 63:1 and the compound at N/P ratio of 10:1 (compound 0 (DL) and compound 8) or 5:1 (compound 4 and compound 9) using methods described above. The IVT-mRNA and pDNA concentration in both binary and ternary complexes was fixed at 10 μg/ml.
The results of physical characterizations (size and zeta potential) of P704 based binary and ternary complexes containing IVT-mRNA or pDNA are given in the following table: […]

BEAS-2B cells = test: In vitro transfection, Metridia luciferase assay in BEAS-2B cells; format: cell-based, human
Description: Preparation of IVT-mRNA/pDNA containing binary and ternary complexes: Stock solutions of P704 (5 mg/ml) and synthetic compound (1 mg/ml) were prepared in nuclease-free water (NF water) and stored at 4° C. P704 based binary complexes (P704/IVT-mRNA or P704/pDNA) were prepared by mixing equal volumes of diluted P704 stock solution with IVT-mRNA or pDNA solution at the desired concentration in 2× Tyrode's solution. Ternary complexes were generated via two-steps incubation. Briefly, P704 solutions at certain concentration (defined as weight/weight (w/w) ratio between P704 and nucleic acids) in NF-water were mixed with equal volume of synthetic compound solution at specific concentration (defined as N/P ratio, namely the […] between nitrogen residues in synthetic compound and nucleic acids phosphate groups). After 20 min incubation at room temperature (RT), same volumes of nucleic acid (IVT-mRNA or pDNA) solution in NF-water were added to the above P704/synthetic compound solution and mixed gently by pipetting up and down several times. Subsequently, complexes were incubated for another 20 min at RT prior to further use. IVT-mRNA or pDNA solutions in NF-water were complexed with brPEI (25 kDa) at an optimum N/P ratio, the resulting complexes were served as a control polyplex. As for control lipoplex, Lipofectamine® 2000 complexes were prepared according to the manufacturer's instructions using optimum concentration. In order to prepare DOTAP/DOPE liposomes, a lipid film was formed by removing the chloroform solvent in DOTAP/DOPE mixture solution under nitrogen atmosphere. The lipid film is hydrated with NF-water to make the final concentration 10 mM DOTAP/DOPE. The DOTAP/DOPE liposome formulation was formed by mixing 250 μl of pDNA encoding for firefly luciferase and cystic fibrosis transmembrane conductance regulator (fLUC-CFTR pDNA) (150 μg) containing solution and 250 μl diluted DOTAP/DOPE solution (190 μl of 10 mM DOTAP/DOPE liposome and 60 μl NF-water). The mix solution was incubated at RT for 20 min prior to further use.
(§1) In vitro transfection: For the luciferase assay, cells were seeded at a density of 1.8×10^4/well (BEAS-2B) or 3.5×10^4/well (16HBE) in 96-well plates 24 h before transfection to reach 60-80% confluence. Following removal of growth medium, cells were rinsed with DPBS (Gibco, Germany). 170 μl of fresh serum-free OptiMEM (Gibco, Germany) were added per well, and subsequently 30 μl of IVT-mRNA or pDNA containing complexes prepared, as described above, corresponding to 400 ng IVT-mRNA or pDNA per well, were added in replicates of five. After 4 h of incubation at 37° C. in a humidified 5% CO2-containing atmosphere, the transfection medium was replaced with culture medium supplemented with 10% FBS and 1% (v/v) penicillin/streptomycin. Luciferase activity in 50 μl supernatants from transfected cells was assayed with Metridia luciferase substrate (coelenterazine, Invivogen, France) after 24 h using a FLUOstar microplate reader (BMG Labtech, Germany) and its activity is expressed in relative light units (RLU). In all cases each sample was measured on at least two other occasions to ensure the reproducibility of the data.
The same transfection procedure as described above was applied. Luciferase activity was expressed in RLU. The data are given as the mean±standard deviation (SD) of the mean (n>5) in FIGS. 12a to 12k.
The concentration of P704 in ternary complexes for treatment of BEAS-2B cells was 50 (w/w) and the concentration of P704 in ternary complexes for treatment of 16HBE cells was 63 (w/w). The N/P ratios of the compounds in ternary complexes were as follows:
BEAS-2B cells: Compound 0 (DL) at 30, compound 1 at 20, compounds 3 and 11 at 15, compounds 4 and 6 at 10, compounds 2 and 9 at 5, compounds 5, 7, 8 and 10 at 2.5.
The same transfection procedure as described above was applied. Luciferase activity was expressed in RLU. […]

airway epithelium cells = test: In vitro transfection study on cultured airway epithelium cells (luciferase, RLU/mg cellular protein); format: cell-based; conditions: ternary complexes formed by P704, a nucleic acid and the compound
Description: as §1, with “Luciferase activity in 50 μl supernatants from transfected cells was” left out, “[…]).” for “Germany) and its activity is expressed in relative light units (RLU).”

16HBE cells = test: In vitro transfection, Metridia luciferase assay in 16HBE cells; format: cell-based, human; conditions: day 2

Substance | particle size of ternary complex compared with other counterparts [1] | IVT-mRNA transfection efficiency of P704 ternary complex (in words) (BEAS-2B cells; MetLuc mRNA, P704 63 (w/w), optimum N/P, FIG. 17a) | pDNA transfection efficiency of P704 ternary complex (in words) (BEAS-2B cells; MetLuc pDNA, P704 50 (w/w), optimum N/P, FIG. 14a) | pDNA expression relative to compound 3 containing ternary complex (BEAS-2B cells; MetLuc pDNA, FIG. 14a) [times] | transfection efficiencies of ternary complexes with compound 0 (DL) versus compound 0 (R) (airway epithelium cells) | pDNA expression compared with compound 3 containing ternary complex (16HBE cells)
KETWWETWWTEWWTEW-KKKKRRRRRKKKK-GACSERSMNFCG (KETWWETWWTEWWTEWKKKKRRRRRKKKKGACSERSMNFCG) [compound 9] | slightly smaller | more superior to other counterparts | highest transfection efficiency | – | – | –
NH2-VKRKKKPKKRRRRKKWK(DL-lipoic acid)-CONH2 (H-VKRKKKPKKRRRRKKWK(Lipoyl(6ξ))-NH2; SMILES CC(C)[C@H](N)C(=O)N[C@@H](CCCCN)C(=O)N[C@@H](CCCNC(=N)N)C(=O)N[C@@H](CCCCN)C(=O)N[C@@H](CCCCN)C(=O)N[C@@H](CCCCN)C(=O)N1CCC[C@H]1C(=O)N[C@@H](CCCCN)C(=O)N[C@@H](CCCCN)C(=O)N[C@@H](CCCNC(=N)N)C(=O)N[C@@H](CCCNC(=N)N)C(=O)N[C@@H](CCCNC(=N)N)C(=O)N[C@@H](CCCNC(=N)N)C(=O)N[C@@H](CCCCN)C(=O)N[C@@H](CCCCN)C(=O)N[C@@H](Cc1c[nH]c2ccccc12)C(=O)N[C@@H](CCCCNC(=O)CCCCC1CCSS1)C(N)=O) [compound 0 (DL)] | – | – | – | ~5 | similar | similar
